From patent US9452217B2, “Methods for potentiating immune response for the treatment of infectious diseases and cancer” (Nitor Therapeutics, priority 2013, dated 2016)

What was measured:
human TLR9 = target: T1, human TLR9 (Homo sapiens, UniProt Q9NR96); assay: TLR ligand screening: NF-κB activation (SEAP reporter) in HEK293 cells expressing TLR9; type: cell-based; conditions: one concentration: NTR001 10 uM, Inosine 100 uM; FIG. 2
T1 construct: expressed in transfected cells; host or cells: HEK293
T1 sequence (Q9NR96 26-1032): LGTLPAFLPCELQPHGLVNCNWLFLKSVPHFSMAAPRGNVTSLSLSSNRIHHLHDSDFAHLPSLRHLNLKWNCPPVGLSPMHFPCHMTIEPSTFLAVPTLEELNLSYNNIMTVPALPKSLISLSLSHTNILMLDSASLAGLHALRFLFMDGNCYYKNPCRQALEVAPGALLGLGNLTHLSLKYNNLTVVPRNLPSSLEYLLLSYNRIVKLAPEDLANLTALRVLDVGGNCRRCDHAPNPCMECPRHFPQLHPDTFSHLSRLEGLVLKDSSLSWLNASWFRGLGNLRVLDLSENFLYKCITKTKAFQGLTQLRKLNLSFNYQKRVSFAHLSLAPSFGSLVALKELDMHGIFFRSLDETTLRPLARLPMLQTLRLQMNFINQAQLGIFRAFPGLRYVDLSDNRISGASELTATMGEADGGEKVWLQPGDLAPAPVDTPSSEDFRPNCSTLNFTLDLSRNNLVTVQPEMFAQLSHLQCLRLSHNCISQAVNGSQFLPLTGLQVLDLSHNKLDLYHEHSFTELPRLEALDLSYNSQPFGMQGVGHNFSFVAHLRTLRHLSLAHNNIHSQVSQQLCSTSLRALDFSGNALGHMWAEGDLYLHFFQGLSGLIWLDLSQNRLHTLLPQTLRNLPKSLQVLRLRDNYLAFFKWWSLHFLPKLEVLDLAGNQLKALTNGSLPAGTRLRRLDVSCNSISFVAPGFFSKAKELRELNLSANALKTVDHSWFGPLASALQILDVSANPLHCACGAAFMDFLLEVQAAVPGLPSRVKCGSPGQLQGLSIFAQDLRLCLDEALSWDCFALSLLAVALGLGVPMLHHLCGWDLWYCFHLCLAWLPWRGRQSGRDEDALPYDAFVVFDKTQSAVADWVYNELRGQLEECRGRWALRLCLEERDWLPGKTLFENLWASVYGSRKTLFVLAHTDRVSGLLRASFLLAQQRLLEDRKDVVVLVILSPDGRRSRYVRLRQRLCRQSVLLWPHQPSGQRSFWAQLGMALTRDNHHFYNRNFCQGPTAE
Description: (§1) Method: TLR stimulation is tested by assessing NF-κB activation in HEK293 cells expressing a given TLR. The Secreted Embryonic Alkaline Phosphatase (SEAP) reporter is under the control of a promoter inducible by the transcription factor NF-κB. This reporter gene allows the monitoring of signaling through the TLR, based on the activation of NF-κB. The compounds are evaluated at one concentration and compared to control ligands. This step is performed in triplicate.

human TLR2 = target: T2, human TLR2 (Homo sapiens, UniProt O60603); assay: TLR ligand screening: NF-κB activation (SEAP reporter) in HEK293 cells expressing TLR2; type: cell-based; conditions: one concentration: Guanosine 100 uM, NTR001 10 uM, Inosine 100 uM; FIG. 2
T2 construct: expressed in transfected cells; host or cells: HEK293
T2 sequence (O60603 21-784): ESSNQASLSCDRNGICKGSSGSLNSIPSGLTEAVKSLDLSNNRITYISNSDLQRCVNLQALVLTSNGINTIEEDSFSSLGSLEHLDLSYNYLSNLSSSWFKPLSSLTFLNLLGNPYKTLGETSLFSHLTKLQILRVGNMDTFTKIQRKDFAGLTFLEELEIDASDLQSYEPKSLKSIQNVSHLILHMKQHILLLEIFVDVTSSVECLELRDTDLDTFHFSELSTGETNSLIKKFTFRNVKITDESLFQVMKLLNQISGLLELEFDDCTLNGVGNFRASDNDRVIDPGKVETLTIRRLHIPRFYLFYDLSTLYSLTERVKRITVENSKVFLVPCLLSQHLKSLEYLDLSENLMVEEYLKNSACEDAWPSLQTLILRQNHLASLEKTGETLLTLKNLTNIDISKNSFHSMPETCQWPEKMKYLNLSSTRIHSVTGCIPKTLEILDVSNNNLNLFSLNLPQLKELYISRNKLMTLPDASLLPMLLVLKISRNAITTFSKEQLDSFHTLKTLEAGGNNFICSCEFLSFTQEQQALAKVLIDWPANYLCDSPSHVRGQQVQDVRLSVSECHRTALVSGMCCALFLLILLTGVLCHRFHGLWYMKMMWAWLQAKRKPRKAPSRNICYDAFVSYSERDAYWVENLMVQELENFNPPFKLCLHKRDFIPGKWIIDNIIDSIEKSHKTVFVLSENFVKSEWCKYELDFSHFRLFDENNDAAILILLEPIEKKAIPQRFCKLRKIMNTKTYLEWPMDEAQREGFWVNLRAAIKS
Description: as §1

human TLR7 = target: T3, human TLR7 (Homo sapiens, UniProt Q9NYK1); assay: TLR ligand screening: NF-κB activation (SEAP reporter) in HEK293 cells expressing TLR7; type: cell-based; conditions: one concentration: NTR001 10 uM, Inosine 100 uM; FIG. 2
T3 construct: expressed in transfected cells; host or cells: HEK293
T3 sequence (Q9NYK1 27-1049): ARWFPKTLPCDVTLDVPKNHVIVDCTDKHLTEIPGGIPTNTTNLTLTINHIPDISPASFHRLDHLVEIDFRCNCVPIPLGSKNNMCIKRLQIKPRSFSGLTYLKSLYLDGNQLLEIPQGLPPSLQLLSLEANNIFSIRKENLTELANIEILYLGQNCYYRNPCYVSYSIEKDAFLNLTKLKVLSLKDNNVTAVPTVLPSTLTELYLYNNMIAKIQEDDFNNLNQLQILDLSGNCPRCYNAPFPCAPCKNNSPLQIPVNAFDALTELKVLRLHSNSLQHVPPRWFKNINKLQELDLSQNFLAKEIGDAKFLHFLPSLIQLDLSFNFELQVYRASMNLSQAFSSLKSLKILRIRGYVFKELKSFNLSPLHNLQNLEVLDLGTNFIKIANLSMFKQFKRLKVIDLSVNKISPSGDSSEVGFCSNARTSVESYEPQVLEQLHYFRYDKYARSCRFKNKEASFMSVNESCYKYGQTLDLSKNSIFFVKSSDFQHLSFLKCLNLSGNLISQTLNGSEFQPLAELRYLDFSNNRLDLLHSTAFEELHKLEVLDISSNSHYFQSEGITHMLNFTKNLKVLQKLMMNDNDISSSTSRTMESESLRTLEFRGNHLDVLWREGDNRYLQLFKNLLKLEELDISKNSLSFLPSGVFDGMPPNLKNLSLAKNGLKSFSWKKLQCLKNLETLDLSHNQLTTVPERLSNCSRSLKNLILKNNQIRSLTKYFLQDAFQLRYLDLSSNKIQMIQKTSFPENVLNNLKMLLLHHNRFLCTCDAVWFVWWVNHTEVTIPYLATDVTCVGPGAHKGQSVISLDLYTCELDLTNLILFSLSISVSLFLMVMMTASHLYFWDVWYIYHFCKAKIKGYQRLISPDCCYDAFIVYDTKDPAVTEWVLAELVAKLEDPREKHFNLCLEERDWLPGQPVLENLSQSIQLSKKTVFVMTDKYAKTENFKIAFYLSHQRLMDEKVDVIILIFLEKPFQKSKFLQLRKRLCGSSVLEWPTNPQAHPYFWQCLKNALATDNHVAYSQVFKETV
Description: as §1

[1] = test system: immune response to tetanus toxoid vaccine; assay: PNPi as adjuvant in tetanus toxoid vaccine efficacy study (mouse); type: in vivo; conditions: mice, p.o., ELISA
[2] = test system: L. monocytogenes (ATCC Strain35152, hemolytic substrain); assay: Mouse model of L. monocytogenes infection; conditions: Balb/c mice infected i.v. with 1×10^6 CFU; 30 mg/kg PO or IP, 2 mg/kg drinking water; FIGS. 7 and 9
B16 tumors = assay: Syngeneic mouse melanoma model; type: in vivo, C57BL/6 mice
Description: Method: Cancer cells were injected subcutaneously in right flank of each mouse, 1×10^4 cells in 0.1 ml PBS with 20% Matrigel. Treatment with the NTR001 was initiated on day 6 after injection of tumor cells. Tumor volume and survival were recorded every 3-4 days.

SMILES: OC[C@H]1O[C@@H](n2cnc3c(O)ncnc32)[C@H](O)[C@@H]1O [Inosine]
- stimulatory effect on human TLR9 (human TLR9): do not exhibit a stimulatory effect
- stimulatory effect on human TLR2 (human TLR2): do not exhibit a stimulatory effect
- stimulatory effect on human TLR7 (human TLR7): do not exhibit a stimulatory effect

SMILES: O=c1[nH]cnc2c([C@@H]3N[C@H](CO)[C@@H](O)[C@H]3O)c[nH]c12 [NTR001, 7-[(2S,3S,4R,5R)-3,4-dihydroxy-5-(hydroxymethyl)-2-pyrrolidinyl]-1,5-dihydro-4H-pyrrolo [3,2-d]pyrimidin-4-one]
- serum tetanus toxoid antibody titers compared to the vehicle treated group ([1]; 30 mg/kg (6 days of treatment) and 60 mg/kg (3 days of treatment), day 38, FIG. 3): significantly elevated
- serum interferon-g compared to the vehicle treated group ([1]; high dose group 60 mg/kg, day 30, FIG. 4): elevated
- weight loss [2]: significant decrease in weight loss
- stimulatory effect on human TLR9 (human TLR9): do not exhibit a stimulatory effect
- tumor volume (B16 tumors; B16 tumors in C57BL/6 mice, treatment from day 6, FIG. 5): significant decrease
- survival (B16 tumors; NTR001 as single agent (30 mg/kg PO week on/off; 5 mg/kg drinking water 28 days), FIG. 6): 0-20%
- stimulatory effect on human TLR2 (human TLR2): do not exhibit a stimulatory effect
- stimulatory effect on human TLR7 (human TLR7): do not exhibit a stimulatory effect
